Measured values taken from patent US10106565B2 (priority 2008, dated 2018).

Key:
human monocytes = experiment: Differentiation of monocytes in osteoclasts (M-CSF and sRANK-Ligand); format: cell-based
Protocol: PBMC from adult healthy volunteers are prepared as described in example 1.
Monocytes are then purified by negative selection using a kit containing a mixture of mouse anti-human mAbs and superparamagnetic polystyrene beads coated with a human anti-mouse IgG mAbs, according to the manufacturer's instructions (Dynal). The cells obtained after the purification are >90% pure.
Pure monocytes are activated or not during 6 hours with 20 μM of dendrimer Gc1. After three washings, activated and not activated monocytes are cultured for 21 days in α-MEM complete medium, i.e. supplemented with 10% of heat inactivated fetal calf serum (FCS) (Invitrogen), 2 mM L-glutamine, 100 U/mL penicillin and 100 μg/mL streptomycin (Cambrex Bioscience) in presence or not of 20 μM of dendrimer Gc1. To generate osteoclasts, 50 ng/mL of M-CSF (PeproTech) and 30 ng/mL of sRANK-Ligand (PeproTech) are added to the culture medium. Each three days, half medium is changed and 25 ng/mL of M-CSF and 100 ng/mL of sRANK-Ligand are added. At day 21, the cells are fixed and stained with the leucocyte phosphatase acid kit according to the manufacturer's instructions (Sigma-Aldrich).

[1] = test system: mice immunized against myelin oligodendrocyte protein peptide 35-55; experiment: Experimental Autoimmune Encephalomyelitis (EAE) mouse model; format: in vivo; settings: 45 days post-immunization, control about 4
Text: Experimental Autoimmune Encephalomyelitis (EAE) is an inflammatory disease of the Central Nervous System (CNS) that shares clinical and immunopathological similarities with Multiple Sclerosis (MS). The model we have chosen is the classical model of active EAE induced by an immunization against myelin oligodendrocyte protein (MΦG) peptide 35-55 in mice. This leads to a chronic-progressive form of EAE resembling MS. Therefore, it is considered as a good model. Disease severity is scored on a clinical scale of 0 to 5 (0 being no detectable sign of EAE, 4 being tetraparalysis and 5 moribund or death). After MΦG-immunization, EAE scores for motor functions have been evaluated daily for 45 days for each animal. A preventive protocol (FIG. 17A) and a therapeutic protocol (FIG. 17B) have been tested. In both cases, mice are immunized with the MΦG peptide at Day 0 (first arrow of FIGS. 17A and 17B, corresponding to day 0 post-immunization). In the preventive protocol, intravenous administration of 10 mg/kg of dendrimer ABP started at Day 1 (FIG. 17A, second arrow, corresponding to 1 day post-immunization) and then every three days. In the therapeutic protocol, administration of ABP started once the disease is established at Day 18 (FIG. 17B, second arrow, corresponding to 18 days post-immunization), in the same conditions as the preventive protocol.

`CN(/N=C/c1ccc(OP2(Oc3ccc(/C=N/N(C)P(=S)(Oc4ccc(CCN(CP(=O)(O)O)CP(=O)(O)O)cc4)Oc4ccc(CCN(CP(=O)(O)O)CP(=O)(O)O)cc4)cc3)=NP(Oc3ccc(/C=N/N(C)P(=S)(Oc4ccc(CCN(CP(=O)(O)O)CP(=O)(O)O)cc4)Oc4ccc(CCN(CP(=O)(O)O)CP(=O)(O)O)cc4)cc3)(Oc3ccc(/C=N/N(C)P(=S)(Oc4ccc(CCN(CP(=O)(O)O)CP(=O)(O)O)cc4)Oc4ccc(CCN(CP(=O)(O)O)CP(=O)(O)O)cc4)cc3)=NP(Oc3ccc(/C=N/N(C)P(=S)(Oc4ccc(CCN(CP(=O)(O)O)CP(=O)(O)O)cc4)Oc4ccc(CCN(CP(=O)(O)O)CP(=O)(O)O)cc4)cc3)(c3ccc(/C=N/N(C)P(=S)(Oc4ccc(CCN(CP(=O)(O)O)CP(=O)(O)O)cc4)Oc4ccc(CCN(CP(=O)(O)O)CP(=O)(O)O)cc4)cc3)=N2)cc1)P(=S)(Oc1ccc(CCN(CP(=O)(O)O)CP(=O)(O)O)cc1)Oc1ccc(CCN(CP(=O)(O)O)CP(=O)(O)O)cc1` (stereo not shown) [Gc1] was tested, and the “differentiation of human monocytes in osteoclasts” value (human monocytes; 20 μM added in the culture medium, 21 days) was “inhibits”, the “differentiation of human monocytes in osteoclasts” value (human monocytes; monocytes pre-incubated with 20 μM during 6 hours, then rinsed) was “inhibition” and the “disease severity clinical score (EAE, scale 0 to 5)” value ([1]; preventive protocol: 10 mg/kg intravenous from Day 1, every three days) was “less than 1”. For the same compound, the “disease severity clinical score (EAE, scale 0 to 5)” value ([1]; therapeutic protocol: 10 mg/kg intravenous from Day 18, every three days) was “about 1”.
